Data reported in US11660270B2, “Nanoparticle compositions” (Indiana University Research and Technology Corporation, priority 2017, dated 2023).

Tests used:
[1] = Solvent screening for dissolving drugs and polymers; assay type: physicochemical; conditions: added to 1 ml of test solvent, vortex; smallest amount of solvent for immediate solubilization
Protocol: The following solvents were compared for use as drug solvents in nanoprecipitation: acetone, ethanol, tetrahydrofuran (THF), acetic acid, acetonitrile, dimethylsulfoxide (DMSO), dimethylformamide (DMF), N-methylpyrrolidone (NMP), methanol, n-propanol and isopropanol.
Chloroform, dichloromethane (DCM), ethanol, acetone, methanol and ethyl acetate were tested as polymer solvents.
Drugs (thyrotropin-releasing hormone (TRH), oxytocin, and luteinizing hormone-releasing hormone (LHRH)) and polymers (polysebacic acid, and PLGA (poly(lactide-co-glycolide)) with either a 1:1 or 3:1 molar ratio of lactide to glycolide) were added to 1 ml of test solvent and stirred vigorously by vortex.

[2] = in vivo; cited from earlier work

| Compound | best solvent for dissolving [1] | plasma half-life [2] |
| --- | --- | --- |
| NC(=O)[C@@H]1CCCN1C(=O)[C@H](Cc1cnc[nH]1)NC(=O)[C@@H]1CCC(=O)N1 [TRH, pyroglutamyl-histidyl-proline-amide] | Ethanol | about 8 minutes |
| CC[C@H](C)[C@@H]1NC(=O)[C@H](Cc2ccc(O)cc2)NC(=O)[C@@H](N)CSSC[C@@H](C(=O)N2CCC[C@H]2C(=O)N[C@@H](CC(C)C)C(=O)NCC(N)=O)NC(=O)[C@H](CC(N)=O)NC(=O)[C@H](CCC(N)=O)NC1=O [oxytocin] | acetic acid |  |
| luteinizing hormone-releasing hormone [LHRH] | acetic acid |  |
